# Where two headings read alike, the source gives them in different places.
# Test system: BT474 xenografts
# Details: for tumor SUV, % of pretreatment SUV: mice without DOX (n=8), mean±SD
compound,measurement,setting,value
"OC[C@H]1OC(O)[C@H]([18F])[C@@H](O)[C@@H]1O (stereo partly shown) [Agent F-18-FDG, 2’-F-18-fluorodeoxyglucose]",muscle uptake in contralateral normal thigh,"PET imaging, mouse bearing BT474 tumor in the right thigh",significant
same,"tumor SUV, % of pretreatment SUV",3rd week,108±28%
same,"tumor SUV, % of pretreatment SUV",5th week,151±8%
same,"tumor SUV, % of pretreatment SUV",7th week,152±355%
